Source: US10787423B2, “Piperazine and piperidine derivatives, their synthesis and use thereof in inhibiting VDAC oligomerization, apoptosis and mitochondria dysfunction” (THE NATIONAL INSTITUTE FOR BIOTECHNOLOGY IN THE NEGEV LTD., priority 2015, dated 2020)
Where two headings read alike, the source gives them in different places.

Assays:
[1] = 6-hydroxydopamine-induced cell toxicity, XTT cell viability; assay type: cell-based; conditions: human, 24 h, read-out: decrease in cell viability
Method: (§1) SHSY5Y (obtained from ATCC) were grown at 37° C. under an atmosphere of 95% air and 5% CO2 in DMEM medium supplemented with 10% fetal bovine serum, 2 mM L-glutamine, 1000 U/ml penicillin, and 1 mg/ml streptomycin until 60-70% of confluence. Further, the cells were incubated with increasing concentrations of 6-hydroxydopamine. After 24 hours, and cells viability was assayed using the XTT (2,3-bis-(2-methoxy-4-nitro-5-sulfophenyl)-2H-tetrazolium-5-carboxanilide) method, according to the supplier instructions. […] The 50% decrease in cell survival was obtained at about 50 μM of 6-hydroxydopamine.
(§2) Cell viability as assayed following 24 h incubation with different concentrations of 6-hydroxydopamine in the absence (closed squares (▪)) or in the presence of VBIT-12 (15 μM, closed circles (●)) is shown.
(§3) Similarly, cells that were incubated with increasing concentrations of VBIT-12 in presence of either 30 or 50 μM of 6-hydroxydopamine that decreased cell viability by […], respectively, remained viable after 24 hours of the incubation. Cells viability is charted in FIG. 24C versus the concentrations of VBIT-12. Closed squares (▪) indicate control group without 6-hydroxydopamine, open circles (◯) indicates cells' viability when exposed to 30 μM of the 6-hydroxydopamine, and closed circles (●) indicate cells viability at 50 μM of the 6-hydroxydopamine.

SHSY5Y cells = experiment: as above; assay type: cell-based; conditions: Homo sapiens, SH-SY5Y, 24 h, read-out: concentration giving 50% decrease in cell survival
Method: as §1, §2, §3

[2] = system: Cyto c release from mitochondria; experiment: Selenite-induced Cytochrome c release from mitochondria in HEK-293 cells; assay type: cell-based; conditions: Homo sapiens, HEK293, compound 2 h then selenite 15 μM 4 h, means±SD (n=3)
Method: One of the ways cell apoptosis is activated is by release of Cytochrome c (Cyto c) from the mitochondria into cytosol. […] Cyto c released to the cytosol may be analyzed by immunoblotting using Cyto c-specific antibodies.
Cells treated with apoptosis inducers in the absence or presence of the tested compounds were harvested, washed twice with PBS, pH 7.4 and gently resuspended at 6 mg/ml in ice-cold buffer (100 mM KCl, 2.5 mM MgCl2, 250 mM sucrose, 20 mM HEPES/KOH pH 7.5, 0.2 mM EDTA, 1 mM dithiothreitol, 1 μg/ml leupeptin, […] and 0.1 mM PMSF) containing 0.025% digitonin and incubated for 10 min on ice. Samples were centrifuged at 10,000×g (relative centrifugal force—RCF) at 4° C. for 5 min to obtain supernatants (cytosolic extracts free of mitochondria) and pellet (fraction that contains mitochondria). Cytochrome c released to the cytosol was analyzed by immunoblotting using Cytochrome c-specific antibodies. Anti-VDAC1 and anti-GAPDH antibodies were used to verify that the cytosolic extracts are mitochondria-free.
c. Cytochrome c (Cyto c) release was determined as described above in Methods (Cytochrome c release from mitochondria). Briefly, to assess Cyto c release, cells were incubated on ice for 10 min with 0.025% digitonin, centrifuged, and the pellet (mitochondria—Mito) and supernatants (cytosol—Cytos) were subjected to SDS-PAGE and immunoblotting, using anti-Cyto c, antibodies. Anti-VDAC1 and anti-GAPDH antibodies were used to verify that the cytosolic extracts are mitochondria-free. The results of Cyto c release from the mitochondria as induced by selenite are presented as immunoblots, with the cytosolic and mitochondrial fractions confirmed by immunoblotting of GAPDH (glyceraldehyde-3-phosphate dehydrogenase) and VDAC1, respectively, in the FIG. 15d. The data are presented as percent inhibition. The results shown correspond to means±SD (n=3). The closed circle (●) indicates VBIT-4 (compound of Formula 1), the open circle (◯) indicates compound of Formula 10 (AKOS-022), and an open square (□) indicates VBIT-3 (compound of Formula 2).
d. […]

HEK-293 cells = experiment: Selenite-induced apoptosis, annexin V-FITC/PI staining and FACS, HEK-293 cells; assay type: cell-based; conditions: Homo sapiens, HEK293, compound 2 h then selenite 15 μM 4 h, means±SD (n=3)
Method: The ability of the compounds of general Formulae (I), (Ia), (Ib), (Ic), (Id), (II) and (IIa) to inhibit apoptosis may be analyzed by annexin-V/propidium iodide (PI) staining and flow cytometry.
Cells, e.g. HeLa cells (2×10^5), untreated or treated with apoptosis-inducing reagents, were analyzed for apoptotic cell death using PI, annexin V-FITC and flow cytometer analysis. Cells were collected (1500×g for 10 min), washed, and resuspended in 200 μl binding buffer (10 mM HEPES/NaOH, pH 7.4, 140 mM NaCl, and 2.5 mM CaCl2). Annexin V-FITC was added according to the recommended Protocol (Enzo Life Sciences, Switzerland), and the cells were incubated in the dark for 15 min. Cells were then washed with binding buffer and resuspended in 200 μl binding buffer, to which PI was added immediately before flow cytometry analysis. At least 10,000 events were collected, recorded on a dot plot, and analyzed by the FACSCalibur™ flow cytometer software (BD Biosciences, Franklin Lakes, N.J.).
b. Additionally, the inhibition of selenite-induced apoptosis by the compounds as analyzed using annexin V-FITC/PI staining and FACS, presented in the FIG. 15c.
(§4) d. IC50 values of the tested compounds were derived from the obtained data. The results shown correspond to means±SD (n=3).

purified VDAC1 = target: T1, purified VDAC1 (Rattus norvegicus, UniProt Q9Z2L0); experiment: Microscale thermophoresis (MST) binding to purified VDAC1
T1 construct: rat liver mitochondria (5 mg/ml) in 10 mM Tris-HCl, pH 7.2, were incubated with 2% LDAO; from tissue; host or cells: rat liver mitochondria
Method: To obtain quantitative parameters of this interaction and derive a dissociation constant, e.g. a microscale thermophoresis (MST) interaction assay may be performed. In this manner, dissociation values are derived from the curves showing the affinity of the compounds of the invention to VDAC.
Briefly, rat liver mitochondria (5 mg/ml) in 10 mM Tris-HCl, pH 7.2, were incubated with 2% LDAO at 0° C. for 20 min, followed by centrifugation (30 min, 14,000 g) and the obtained supernatant was loaded onto a dry celite:hydroxyapatite (2:1) column. VDAC1 was eluted with a solution containing 2% LDAO, 10 mM Tris-HCl, pH 7.2, 50 mM NaCl, and 20 to 22 mM NaH2PO4, with VDAC1 detection by Coomassie blue staining. The VDAC1-containing fractions were dialyzed against 10 mM Tris-HCl, pH 7.2, and subjected to a second chromatography step on a carboxymethyl-cellulose (CMC) column from which VDAC1 was eluted with a solution containing 10 mM Tris-HCl, pH 7.2, 0.1% LDAO and 500 mM NaCl, detected as above. The VDAC1-containing fractions were collected and used for VDAC1 channel conductance and MST assays.
MST analysis was performed using a NanoTemper Monolith NT.115 apparatus. […]
Purified VDAC1 (133 nM), labeled using the NanoTemper fluorescent protein-labeling Kit BLUE (Nano Temper technologies, Munich, Germany), according to the manufactory instructions, was incubated with increasing concentrations of the following tested compounds: compound of Formula 10 (AKOS-022), compound of Formula 2 (VBIT-3), or racemic compound of Formula 1 (VBIT-4). After 20 min of incubation, the samples (3-5 μL) were loaded into MST-grade glass capillaries (Monolith NT Capillaries), and the thermophoresis process was measured using the Monolith-NT115 apparatus.
Fmax and Fmin represent the maximal and minimal fluorescence, respectively and F the fluorescence measured in the presence of the tested compound.
VDAC1 binding affinities of tested compounds were calculated from the MST measurements.

VDAC1 = VDAC1 (Homo sapiens, UniProt P21796); experiment: Selenite-induced VDAC1 oligomerization by EGS cross-linking and immunoblot in HEK-293 cells (Method B); assay type: cell-based; design: endogenous in cells; host or cells: HEK-293
Method: Appropriate test cells (2.5-3 mg/ml) in PBS, were harvested after the treatment and incubated with the cross-linking reagent EGS at a ratio of 100-300 μM for sample of 2-3 mg protein/ml concentration (pH 8.3) for 15 minutes. Protein concentration was determined according to Lowry assay. Samples (60-80 μg protein) were subjected to SDS-PAGE by a standard technique and immunoblotting was performed using anti-VDAC1 antibodies. Gels were electro-transferred onto nitrocellulose membranes for immuno-staining. The membranes were incubated with a blocking solution containing 5% non-fat dry milk and 0.1% Tween-20 in Tris-buffered saline, followed by incubation with monoclonal anti-VDAC1, anti-Cytochrome c, anti-AIF or anti-actin antibodies. Membranes were then incubated with HRP-conjugated anti-mouse or anti-rabbit IgG (1:10,000), serving as secondary antibodies. Antibody labeling was detected by chemiluminescence. To detect VDAC1 oligomers, membranes were treated with 0.1 M glycine, pH 2.0, prior to immunoblotting and washed several times with 0.1% Tween-20 in Tris-buffered saline. Quantitative analysis of immuno-reactive VDAC1 dimer, trimer and multimer bands was performed using FUSION-FX (Vilber Lourmat, France).
The closed circle (●) indicates VBIT-4 (compound of Formula 1), the open circle (◯) indicates compound of Formula 10, and an open square (□) indicates VBIT-3 (compound of Formula 2).
as §4

[3] = Brain penetration after oral gavage, HPLC/MS of brain extracts; assay type: in vivo, C57BL/6 mice; conditions: for concentration at 12 h / concentration at 24 h: C57BL/6, mouse, brain, oral, 50 mg/kg, mouse, read-out: Compounds in brain extract
Method: C57BL/6 mice ([…]) were used. The animals received treatments with either free compounds of Formulae 1 and 10, or encapsulated compounds, prepared according to the Examples 16 and 17. Doses as indicated in the Table 4 below were administered in phosphate-buffered saline (PBS) through an oral gavage. After 12 hours and 24 hours, randomly selected mice from each group were sacrificed, their brains collected and stored in −80° C. The concentrations of the compounds in the tissues were determined by HPLC/MS analysis.
Tissue samples were homogenized in phosphate-buffered saline solution, then diluted with acetonitrile to 50% v/v, centrifuged at 10,000 g for 10 minutes, and supernatants were analyzed. The compounds concentrations in the brain extracts were determined from calibration curves. The results were the averaged from 2 mice for each treatment group/time point.

[4] = IC50 for several activities / effective range (activity not specified); conditions: quoted for comparison with brain levels
[5] = 50 mg/kg in PLGA nanoparticles, oral gavage
[6] = 50 mg/kg oral gavage, free compound

T1 sequence (Q9Z2L0 whole entry): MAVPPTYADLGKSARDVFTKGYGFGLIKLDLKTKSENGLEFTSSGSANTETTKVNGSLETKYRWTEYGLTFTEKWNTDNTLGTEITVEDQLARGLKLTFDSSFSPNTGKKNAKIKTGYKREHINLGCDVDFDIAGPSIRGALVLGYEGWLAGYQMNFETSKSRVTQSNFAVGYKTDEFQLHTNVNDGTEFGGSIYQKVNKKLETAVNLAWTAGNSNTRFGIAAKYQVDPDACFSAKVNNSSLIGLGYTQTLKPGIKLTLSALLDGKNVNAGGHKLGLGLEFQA
VDAC1, sequence (P21796 whole entry): as the sequence (Q9Z2L0 whole entry) above, with N55T, V129M, S160A, V227I counted along it

| SMILES | cytotoxicity at 24 h, 30 μM ([1]; 30 μM 6-hydroxydopamine) [%] | cytotoxicity at 24 h, 50 μM ([1]; 50 μM 6-hydroxydopamine) [%] | 6-hydroxydopamine concentration giving 50% decrease in cell survival (SHSY5Y cells) [µM] | IC50 [2] [µM] | IC50 (HEK-293 cells) [µM] | Kd (purified VDAC1; MST, purified VDAC1 133 nM, 20 min incubation, means±SD (n=3), read-out: VDAC1 binding affinities) [µM] | IC50 (VDAC1; HEK-293 cells, compound 2 h then selenite 15 μM 4 h, means±SD (n=3), read-out: VDAC1 oligomerization IC50) [µM] | Kd (purified VDAC1) [µM] | concentration at 12 h [3, 5] [µM] | concentration at 24 h [3, 5] [µM] | concentration at 12 h [3, 6] [µM] | concentration at 24 h [3, 6] [µM] | brain penetration ([3]; given orally, in solution or encapsulated in PLGA nano-particles) | IC50 [4] [µM] | IC50 (VDAC1) [µM] |
| --- | --- | --- | --- | --- | --- | --- | --- | --- | --- | --- | --- | --- | --- | --- | --- |
| NCCc1cc(O)c(O)cc1O [6-hydroxydopamine, reference compound] | 90 | 95 | ~50 |  |  |  |  |  |  |  |  |  |  |  |  |
| O=C1CC(N2CCN(c3ccc(OC(F)(F)F)cc3)CC2)C(=O)N1c1ccc(Cl)cc1 (centres unmarked) [Formula 2, 1-(4-chlorophenyl)-3-(4-(4-(trifluoromethoxy)phenyl)piperazin-1-yl)pyrrolidine-2,5-dione] |  |  |  | 6.6 ± 1.03 | 7.5 ± 0.27 | 31.3 ± 1.7 | 8.8 ± 0.56 |  |  |  |  |  |  |  |  |
| O=C1CC(N2CCC(Nc3ccc(OC(F)(F)F)cc3)CC2)C(=O)N1c1ccc(Cl)cc1 (centres unmarked) [Formula 10] |  |  |  | 3.6 ± 0.4 | 3.4 ± 0.2 |  |  | 15.4 ± 2.9 | 4.36 ± 0.148 | 2.8 ± 1.19 | 4.2 ± 0.714 | 1.24 ± 0.23 | reached the brain | 1 | 3.3 ± 0.18 |
